Assay results reported in patent publication US12116358B2, “Substituted indoles and methods of use thereof” (EPIZYME, INC., priority 2018, dated 2024).
Read-outs that look alike come from different tables or passages of the source.

What was measured:
[1] = target: T1, SETD2(1434-1711) (Homo sapiens, UniProt Q9BYW2); test: SETD2 (1434-1711) assay; type: biochemical; conditions: read-out: SETD2 (1434-1711)
T1 construct: SETD2 (1434-1711) Assay; catalogue N/A
T1 sequence (Q9BYW2 1434-1711): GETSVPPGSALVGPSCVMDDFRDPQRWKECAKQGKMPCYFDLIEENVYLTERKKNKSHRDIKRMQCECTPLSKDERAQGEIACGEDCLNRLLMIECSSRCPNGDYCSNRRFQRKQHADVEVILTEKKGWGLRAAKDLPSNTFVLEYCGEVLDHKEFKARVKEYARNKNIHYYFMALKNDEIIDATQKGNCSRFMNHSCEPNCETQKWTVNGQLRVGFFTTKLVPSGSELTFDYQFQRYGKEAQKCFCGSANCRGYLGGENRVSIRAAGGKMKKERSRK

[2] = tested on: H3K36me3 in A549 cells; test: In-Cell Western (ICW) assay of SETD2 inhibitors (A549 assay); type: cell-based, human; conditions: A549 cells, read-out: SETD2 A549
Outline: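 A549 cells seeded at 4,000/well onto compound and incubated 3 days at 37° C. Methanol-fixed cells stained overnight at 4° C with anti-H3K36me3 (1:1000), then IRDye 800CW secondary with DRAQ5 DNA counterstain. Plates read by Licor imaging at 700 and 800 channels.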

Row | IC50 [1] [nM] | IC50 [2] [nM] | IC50 ([2]; Homo sapiens) [nM] | Compound
1 | 9 | 600 | – | Cc1ccc(F)c2cc(C(=O)Nc3cc(Cl)cc(N4CCC(CCCN)CC4)c3)[nH]c12 [compound 246]
2 | 50 | – | 600 | Cc1ccc(F)c2cc(C(=O)Nc3cccc4c3cnn4C3CCN(C)CC3)[nH]c12 [compound 247]
3 | 10 | 600 | – | Cc1ccc(F)c2cc(C(=O)Nc3cccc(C45CCC(N(C)C)CC4C5)c3)[nH]c12 (centres unmarked) [compound 251]
4 | 50 | 600 | – | COCC1(N(C)C)CCN(c2cccc(NC(=O)c3cc4c(F)ccc(C)c4[nH]3)c2)CC1 [compound 253]
5 | 30 | – | 600 | Cc1ccc(F)c2cc(C(=O)Nc3cccc(C4(C#N)CCC(N(C)C)CC4)c3)[nH]c12 (centres unmarked) [compound 255]
6 | 200 | – | 600 | Cc1ccc(F)c2cc(C(=O)Nc3cccc(CC(=O)N(C)C)c3)[nH]c12 [compound 256]
7 | 100 | – | 600 | Cc1ccc(F)c2cc(C(=O)Nc3cccc(N4CCC5(CCN(CC(F)F)CC5)C4)c3)[nH]c12 [compound 259]
8 | 200 | – | 700 | COC1(C)CCN(c2cccc(NC(=O)c3cc4c(F)ccc(C)c4[nH]3)c2)CC1 [compound 262]
9 | 60 | – | 700 | Cc1ccc(F)c2cc(C(=O)Nc3cccc(-c4cccc(CN(C)C)c4)c3)[nH]c12 [compound 266]
10 | 100 | – | 700 | COc1ccnc(C(NC(=O)c2cc3c(F)ccc(C)c3[nH]2)C2CC2)c1C (centres unmarked) [compound 269]
11 | 200 | – | 800 | CC(=O)N1CCN(c2cc(F)cc(NC(=O)c3cc4c(F)cccc4[nH]3)c2)CC1 [compound 271]
12 | 100 | – | 800 | Cc1ccc(F)c2cc(C(=O)Nc3cccc(-c4cccc5nccn45)c3)[nH]c12 [compound 272]
13 | 90 | – | 900 | Cc1ccc(F)c2cc(C(=O)Nc3cccc(-n4cnc(CN(C)C)n4)c3)[nH]c12 [compound 276]
14 | 70 | 900 | – | Cc1ccc(F)c2cc(C(=O)Nc3cccc(-c4ccc5cncn5c4)c3)[nH]c12 [compound 278]
15 | 40 | – | 1000 | Cc1ccc(F)c2cc(C(=O)Nc3cccc(C4CCC(N(C)C)C4)c3)[nH]c12 (centres unmarked) [compound 282]
16 | 40 | – | 1000 | Cc1ccc(F)c2cc(C(=O)Nc3cccc(C4CCNC4)c3)[nH]c12 (centres unmarked) [compound 283]
17 | 200 | – | 1000 | Cc1ccc(F)c2cc(C(=O)Nc3cccc(N4CC5CC4CO5)c3)[nH]c12 (centres unmarked) [compound 284]
18 | 40 | – | 1000 | Cc1ccc(F)c2cc(C(=O)Nc3cccc(-c4ccccn4)c3)[nH]c12 [compound 285]
19 | 300 | 1000 | – | CNC(=O)CCCc1cccc(NC(=O)c2cc3c(F)ccc(C)c3[nH]2)c1 [compound 288]
20 | 400 | – | 1100 | CNC(=O)CCc1cccc(NC(=O)c2cc3c(F)ccc(C)c3[nH]2)c1 [compound 293]
21 | 100 | – | 1100 | Cc1ccc(F)c2cc(C(=O)Nc3cccc(N4CCCCC4)c3)[nH]c12 [compound 297]
22 | 200 | – | 1200 | Cc1ccc(F)c2cc(C(=O)Nc3cccc(CC(N)=O)c3)[nH]c12 [compound 300]
23 | 100 | – | 1200 | Cc1ccc(F)c2cc(C(=O)Nc3cccc(N4CC[C@@H](N(C)C)[C@@H](F)C4)c3)[nH]c12 [compound 301]
24 | 300 | 1200 | – | Cc1ccc(F)c2cc(C(=O)Nc3cccc(-c4ncn[nH]4)c3)[nH]c12 [compound 304]
25 | 400 | – | 1200 | Cc1ccc(F)c2cc(C(=O)Nc3cccc(N4CCOCC4C4CC4)c3)[nH]c12 (centres unmarked) [compound 306]

Second part, the molecule before the results:

Row | Compound | IC50 [1] [nM] | IC50 [2] [nM] | IC50 ([2]; Homo sapiens) [nM]
26 | Cc1ccc(F)c2cc(C(=O)Nc3cccc(N4CC5CCN(C)C5C4)c3)[nH]c12 (centres unmarked) [compound 245] | 10 | 600 | –
27 | CC(=O)N1CCCN(c2cccc(NC(=O)c3cc4c(F)ccc(C)c4[nH]3)c2)CC1 [compound 248] | 100 | 600 | –
28 | Cc1ccc(F)c2cc(C(=O)Nc3cccc(-c4ncon4)c3)[nH]c12 [compound 249] | 200 | – | 600
29 | Cc1ccc(F)c2cc(C(=O)Nc3cccc(N4CC5CCC(C4)O5)c3)[nH]c12 [compound 250] | 100 | 600 | –
30 | Cc1ccc(F)c2cc(C(=O)Nc3cccc(-c4cn[nH]c4)c3)[nH]c12 [compound 252] | 200 | 600 | –
31 | Cc1ccc(F)c2cc(C(=O)Nc3cccc(N4CCC(O)(CN(C)C)CC4)c3)[nH]c12 [compound 254] | 60 | – | 600
32 | CC(=O)N1C2CC1CN(c1cccc(NC(=O)c3cc4c(F)ccc(C)c4[nH]3)c1)C2 [compound 257] | 200 | – | 600
33 | Cc1cc(CCN2CCN(C)CC2)cnc1C(Cc1ccccc1)NC(=O)c1cc2c(F)ccc(C)c2[nH]1 (centres unmarked) [compound 258] | 40 | – | 600
34 | Cc1ccc(F)c2cc(C(=O)Nc3cccc(N4CCN(C(=O)OC(C)(C)C)CC4)c3)[nH]c12 [compound 260] | 200 | – | 700
35 | Cc1ccc(F)c2cc(C(=O)Nc3cccc(-c4ncco4)c3)[nH]c12 [compound 261] | 80 | – | 700
36 | CC(=O)Nc1cccc(-c2cccc(NC(=O)c3cc4c(F)ccc(C)c4[nH]3)c2)c1 [compound 263] | 700 | – | 700
37 | Cc1ccc(F)c2cc(C(=O)Nc3cccc([C@H]4CC[C@H](N(C)C)C4)c3)[nH]c12 [compound 264] | 20 | – | 700
38 | Cc1ccc(F)c2cc(C(=O)Nc3cccc(N4CCOCC4CO)c3)[nH]c12 (centres unmarked) [compound 265] | 200 | – | 700
39 | CC(=O)N1CCC(C(N)=O)(c2cc(F)cc(NC(=O)c3cc4c(F)ccc(C)c4[nH]3)c2)CC1 [compound 267] | 10 | – | 700
40 | Cc1ccc(F)c2cc(C(=O)Nc3cccc(N4CCC(O)(C5CCN(C)CC5)CC4)c3)[nH]c12 [compound 268] | 60 | – | 700
41 | Cc1ccc(NC(=O)c2cc3c(F)ccc(C)c3[nH]2)cc1N1CCN(C)CC1 [compound 270] | 50 | – | 800
42 | Cc1cc(Cn2cc[nH]c2=O)cnc1C(NC(=O)c1cc2c(F)ccc(C)c2[nH]1)C1CC1 (centres unmarked) [compound 273] | 200 | – | 800
43 | Cc1ccc(F)c2cc(C(=O)Nc3cc(CF)cc(N4CCC(N(C)C)CC4)c3)[nH]c12 [compound 274] | 40 | – | 800

Row | Compound | IC50 [1] [nM] | IC50 [2] [nM] | IC50 ([2]; Homo sapiens) [nM]
44 | Cc1ccc(F)c2cc(C(=O)Nc3cccc(N4CCN(C)CC4CO)c3)[nH]c12 (centres unmarked) [compound 277] | 200 | – | 900
45 | Cc1ccc(F)c2cc(C(=O)Nc3cccc(N4CCCN(C)CC4)c3)[nH]c12 [compound 279] | 40 | – | 900
46 | Cc1ccc(F)c2cc(C(=O)Nc3cccc(N4CCN(C(C)C)CC4C)c3)[nH]c12 (centres unmarked) [compound 280] | 100 | – | 900
47 | Cc1ccc(F)c2cc(C(=O)Nc3cccc(-n4cnnc4)c3)[nH]c12 [compound 281] | 200 | – | 900
48 | Cc1ccc(F)c2cc(C(=O)Nc3cccc(-c4cn5ccccc5n4)c3)[nH]c12 [compound 286] | 100 | – | 1000
49 | Cc1ccc(F)c2cc(C(=O)Nc3cccc(N4CCOC5(CC5)C4)c3)[nH]c12 [compound 287] | 200 | – | 1000
50 | Cc1ccc(F)c2cc(C(=O)Nc3cccc(N4CC(C)OCC4C)c3)[nH]c12 (centres unmarked) [compound 289] | 400 | – | 1100
51 | Cc1ccc(F)c2cc(C(=O)Nc3cccc(-c4cnn5ccccc45)c3)[nH]c12 [compound 290] | 400 | – | 1100
52 | Cc1ccc(F)c2cc(C(=O)Nc3cccc(N4C5CCC4COC5)c3)[nH]c12 [compound 291] | 300 | – | 1100
53 | CC(=O)N1CC2CC1CN2c1cccc(NC(=O)c2cc3c(F)ccc(C)c3[nH]2)c1 (centres unmarked) [compound 292] | 700 | 1100 | –
54 | Cc1ccc(F)c2cc(C(=O)Nc3cccc(C4CCC5C(CCN5C)C4)c3)[nH]c12 (centres unmarked) [compound 294] | 30 | – | 1100
55 | CC(=O)N1CCN(c2nccc(NC(=O)c3cc4c(F)ccc(C)c4[nH]3)n2)CC1 [compound 295] | 300 | – | 1100
56 | Cc1ccc(F)c2cc(C(=O)Nc3cccc(-c4ncno4)c3)[nH]c12 [compound 296] | 100 | – | 1100
57 | CC(=O)N1[C@@H](C)CN(c2cccc(NC(=O)c3cc4c(F)ccc(C)c4[nH]3)c2)C[C@@H]1C [compound 298] | 300 | – | 1100
58 | Cc1ccc(F)c2cc(C(=O)Nc3cccc(-c4ncn5ccccc45)c3)[nH]c12 [compound 299] | 200 | – | 1100
59 | Cc1ccc(F)c2cc(C(=O)Nc3cccc([C@@H]4CC[C@H](N(C)C)C4)c3)[nH]c12 [compound 302] | 30 | – | 1200
60 | Cc1ccc(F)c2cc(C(=O)Nc3cccc(N4CC[C@@H](N(C)C)C[C@@H]4C)c3)[nH]c12 [compound 303] | 60 | – | 1200
61 | CC(=O)N(C)C1CCCN(C2COCC(NC(=O)c3cc4c(F)ccc(C)c4[nH]3)C2)C1 (centres unmarked) [compound 305] | 500 | – | 1200
